Reference: patent US4115453A (Miles Laboratories, Inc., priority 1977, dated 1978)

Columns and labels:
[1] = test system: gastric secretion; assay: Test B: Inhibition of Rodent Gastric Secretion (pylorus-ligated rat); type: in vivo; conditions: subcutaneous, 2 x 1.5 mg/kg (total 3.0 mg/kg), 4 hours after pyloric ligation
Protocol: A procedure based on that described by Lipmann (J. Pharm. Pharmacol., 21:335 [ 1968]) was used to assess the influence of test compounds on gastric secretion. Rats of one sex weighing 150 to 200 g were randomly divided into groups of six animals each and fasted for 48 hours previously to the experiments, water being available adlibitum. The animals were anesthetized with ether, the abdomen was opened through a midline incision and the pylorus was ligated. Test compounds were diluted from stock solution so as to administer a dose of 1.5 mg/kg in a volume equivalent to 1 ml/kg. Subcutaneous injections were applied immediately after surgery and again 2 hours later, so that a total dose of 3.0 mg/kg was administered. Dilutions were made with phosphate buffer (pH 7.38) as recommended by Lee et al. (Prostaglandins 3:29 [ 1973]), in order to insure adequate stability of drugs at the subcutaneous depot. Each compound was tested in one group of rats; an additional control group received only the vehicle.
Four hours after pyloric ligation the animals were killed with ether, the cardias ligated and the stomachs removed. The volume of gastric secretion was measured and the contents centrifuged at 5000 rpm for 10 minutes. Total acid in the supernatant was titrated against a 0.1 N sodium hydroxide solution and the amount expressed in mEq.
Volume and total acid values of the treated group were compared with those of the controls by the "T" test. Antisecretory activity was scored according to the following scale: […]

[2] = test system: human platelet aggregation; assay: Test A: Inhibition of Human Platelet Aggregation; type: cell-based; conditions: human platelet rich plasma, in vitro, collagen-induced, 37° C, 15 minutes
Protocol: The ability of test compounds to inhibit platelet aggreagation was determined by a modification of the turbidometric technique of Born (Nature, 194: 927 [1962]). Blood was collected from human volunteer who had not ingested aspirin or aspirin-containing products within the preceding two weeks in heparinized containers and was allowed to settle for one (1) hour. The platelet rich plasma (prp) supernates were collected and cooled. Siliconized glassware was used throughout.
In a representative assay 1.9 ml of PRP and 0.2 ml of test compound at the appropriate concentrations (0.001 to 100 mcgm), or 0.2 ml of distilled water (control procedure) were placed in sample cuvettes. The cuvettes were placed in a 37° C incubation block for 15 minutes, and then in a spectrophotometer linked to a strip chart recorder. After 30-60 seconds, 0.2 ml of a solution, prepared by diluting a calf-skin collagen solution 1:9 with Tyrodes' Solution, was added to each cuvette. Platelet aggregation was evidenced by a decrease in optical density.
An ED50 value was then determined graphically.

[3] = test system: femoral blood flow; assay: Test C: Increase in Canidae Femoral Blood Flow; type: in vivo; conditions: anesthetized dog, intraarterial, 0.001 to 10 mcg
Protocol: The peripheral vasodilator or constrictor effects of test compounds were determined in mongrel dogs of either sex, weighing between 10 and 20 kg anesthestized intravenously with 35 mg/kg of sodium pentobarbital. An external iliac artery was dissected immediately above the femoral arch for a length of approximately 5 cm and a previously calibrated, non-connulating electromagnetic flowmeter sensor with a lumen between 2.5 and 3.5 mm was placed snugly around the vessel. Cannulas were placed in a branch of the artery arising distally to the location of the flowmeter sensor for intraarterial drug administrations, in the contralateral femoral artery for systemic blood pressure recordings and in the trachea for artificial respiration with room air. Femoral blood flow and systemic blood pressure were continuously recorded with an electromagnetic flowmeter and pressure tranducer, respectively.
After an adequate control period, test compounds were injected intraarterially at one log-spaced doses ranging from 0.001 to 10 mcg., in a volume of 0.5 ml and at 5 to 10 minute intervals. Maximum changes in bloodflow, as well as any variations in blood pressure, were tabulated for each dose in absolute values (ml/min. and mmHg). The calculations were made taking as control values those existing immediately before administration of each dose. The direction of the observed change (plus for increase and minus for decrease) was also noted. The dose changing bloodflow by 100 ml/min (ED100 ml/min) was calculated graphically and was used for scoring activity as follows: […]

[4] = test system: blood pressure; assay: Test D: Decrease in Normal Feline Blood Pressure and Heart Rate (anesthetized cat); type: in vivo; conditions: intravenous, 0.01 to 10.0 mcg/kg, judged only on hypotension
Protocol: The acute effects of test compounds on blood pressure and heart rate were determined in cats of either sex anesthetized with a mixture of pentobarbital sodium (35 mg/kg, i.v.) and barbital sodium (100 mg/kg, i.v.). Cannulas were placed in the trachea to allow adequate spontaneous ventilation, in a femoral artery for blood pressure recording with a strain gage transducer, and in a saphenous vein for drug administration. Heart rate was recorded by means of a cardiotachometer driven by the R wave of the electrocardiogram. After a period of 10 minutes of stable recordings of blood pressure and heart rate, the test compound was administered intravenously at doses increasing from 0.01 to 10.0 mcg/kg, spaced one log and injected at 10 minutes intervals. All doses were injected in a volume of 0.1 ml/kg. Modifications of blood pressure and heart rate induced by the test compound were expressed both in absolute units (mmHg and beats/minutes) and as percent of values recorded immediately before administration of each dose. Biphasic responses were tabulated in the order in which they occur. The direction of the observed changes was also noted (+ for increases and - for decreases).
Activity of compounds in this test was judged only on the basis of the degree of hypotension observed. Thus, the ED50 mmHg (dose decreasing blood pressure by 50 mmHg) was calculated graphically and the compound scored according to the following scale: […]

Row | SMILES | Activity Value Test B (% decrease in acidity) [1] | Activity Value Test A (ED50, inhibition of platelet aggregation) [2] | Activity Value Test C (ED100 ml/min, dose changing bloodflow by 100 ml/min) [3] | Activity Value Test D (ED50 mmHg, dose decreasing blood pressure by 50 mmHg) [4]
1 | COC(=O)CCCCCC[C@@H]1[C@@H](/C=C/[C@@H](O)C2CC3CCC3C2)[C@H](O)C[C@@H]1O (stereo partly drawn) [TR-4711, methyl 7-{3R, 5S-dihydroxy-2R-[3S-hydroxy-3-(bicyclo[3.2.0]hept-3-yl)-1E-propenyl]cyclopent-1R-yl}heptanoate] | 1 (26-50, not significant) | – | – | –
2 | O=C(O)CCCCCC[C@H]1C(=O)CC[C@@H]1/C=C/[C@@H](O)CCCCC1CCCC2CCCCC21 (relative stereo) [TR-4189, dl-7-{5-oxo-2R[3S-hydroxy-7-(bicyclo[4.4.0]dec-2-yl)-1E-heptenyl]cyclopent-1R-yl}heptanoic acid] | 0 (<26) | 1 (>1.0) | – | –
3 | COC(=O)CCCCCC[C@H]1C(=O)C[C@@H](O)[C@@H]1/C=C/[C@@H](O)C1CC2CCC2C1 (stereo partly drawn) [TR-4099, methyl 7-{3R-hydroxy-5-oxo-2R-[2S-hydroxy-3-(bicyclo[3.2.0]hept-3-yl)-1E-propenyl]cyclopent-1R-yl)heptanoae] | 1 (26-50, not significant) | 2 (>0.1≤1.0) | 0 (>10.0) | 0 (>10.0)
4 | COC(=O)CCCCCC[C@H]1C(=O)C[C@@H](O)[C@@H]1/C=C/[C@H](O)C1CC2CCC2C1 (stereo partly drawn) [TR-4098, methyl 7-{3R-hydroxy-5-oxo-2R-[3R-hydroxy-3-(bicyclo[3.2.0]hept-3-yl)-1E-propenyl]cyclopent-1R-yl]heptanoate] | 4 (76-100) | – | 2 (0.11 - 1.0) | 2 (0.11 - 1.0)
5 | O=C(O)CCC/C=C\C[C@H]1C(=O)CC[C@@H]1/C=C/[C@H](O)CCCCC1CCCC2CCCCC21 (mixture of isomers) [TR-4173, dl-7-{5-oxo-2R-[3R-hydroxy-7-(bicyclo[4.4.0]dec-2-yl)-1E-heptenyl]cyclopent-1R-yl}hept-5Z-enoic acid] | – | 1 (>1.0) | – | –
6 | COC(=O)CCCCCC[C@H]1C(=O)C=C[C@@H]1/C=C/[C@@H](O)CCCCC1CCC2CCC1C2 (stereo partly drawn) [TR-4118, methyl 7-{5-oxo-2R-[3S-hydroxy-7-(bicyclo[3.2.1]oct-2-yl)-1E-heptenyl]cyclopent-3-en-1R-yl}heptanoate] | 0 (<26) | 1 (>1.0) | 0 (>10.0) | 0 (>10.0)
7 | O=C(O)CCC/C=C\C[C@H]1C(=O)CC[C@@H]1/C=C/[C@@H](O)C1CC2CCC2C1 (mixture of isomers) [TR-4102, dl-7-{5-oxo-2R-[8 3S-hydroxy-3-(bicyclo[3.2.0]hept-3-yl)-1E-propenyl]cyclopent-1R-yl}hept-5Z-enoic acid] | 4 (76-100) | 1 (>1.0) | 2 (0.11 - 1.0) | 0 (>10.0)
8 | O=C(O)CCCCCC[C@H]1C(=O)CC[C@@H]1/C=C/[C@H](O)CCCCC1CCCC2CCCCC21 (relative stereo) [TR-4190, dl-7-{5-oxo-2R-[3R-hydroxy-7-(bicyclo[4.4.0]dec-2-yl)-1E-heptenyl]cyclopent-1R-yl}heptanoic acid] | 0 (<26) | 1 (>1.0) | – | –
9 | COC(=O)CCCCCC[C@H]1C(=O)C=C[C@@H]1/C=C/[C@H](O)CCCCC1CCC2CCC1C2 (stereo partly drawn) [TR-4119, methyl 7-{5-oxo-2R-[3R-hydroxy-7-(bicyclo[3.2.1]oct-2-yl)-1E-hepentyl]cyclopent-3-en-1R-yl}heptanoate] | 0 (<26) | 1 (>1.0) | 0 (>10.0) | 0 (>10.0)
10 | COC(=O)CCCCCC[C@H]1C(=O)C[C@@H](O)[C@@H]1/C=C/[C@H](O)CCCCC1CCC2CCC1C2 (stereo partly drawn) [TR-4116, methyl 7-{3R-hydroxy-5-oxo-2R-[3R-hydroxy-7-(bicyclo[3.2.1]oct-2-yl)-1E-heptenyl]cyclopent-1R-yl}heptanoate] | 0 (<26) | 1 (>1.0) | 0 (>10.0) | 0 (>10.0)
11 | COC(=O)CCCCCC[C@H]1C(=O)C[C@@H](O)[C@@H]1/C=C/[C@@H](O)CCCCC1CCC2CCC1C2 (stereo partly drawn) [TR-4117, methyl 7-{3R-hydroxy-5-oxo-2R-[3S-hydoxy-7-(bicyclo[3.2.1]oct-2-yl)-1E-heptenyl]cyclopent-1R-yl}heptanoate] | 0 (<26) | 1 (>1.0) | 0 (>10.0) | 0 (>10.0)
12 | O=C(O)CCCCCC[C@H]1C(=O)CC[C@@H]1/C=C/[C@H](O)C1CC2CCC2C1 (mixture of isomers) [TR-4096, dl-7-{5-oxo-2R[3R-hydroxy-3-(bicyclo[3.2.0]hept-3-yl)-1E-propenyl[cyclopent-1R-yl}heptanoic acid] | 0 (<26) | 1 (>1.0) | 2 (0.11 - 1.0) | 0 (>10.0)
13 | COC(=O)CCCCCC[C@H]1C(=O)C[C@@H](O)[C@@H]1/C=C/[C@@H](O)CCCCC1CCCC2CCCCC21 (stereo partly shown) [TR-4172] | 0 (<26) | 1 (>1.0) | 0 (>10.0) | 0 (>10.0)
14 | O=C(O)CCC/C=C\C[C@H]1C(=O)CC[C@@H]1/C=C/[C@H](O)CCCCC1CCCC2CCCCC21 (relative stereo) [TR-4174, dl-7-{5-oxo-2R-[3R-hydroxy-7-(bicyclo[4.4.0]dec-2-yl)-1E-heptenyl]cyclopent-1R-yl}-hept-5Z-enoic acid] | – | 1 (>1.0) | – | –
15 | COC(=O)CCCCCC[C@@H]1[C@@H](/C=C/[C@@H](O)C2CC3CCC3C2)[C@H](O)C[C@H]1O (stereo partly drawn) [TR-4712, methyl 7-{3R,5R-dihydroxy-2R-[3S-hydroxy-3-(bicyclo[3.2.0]hept-3-yl)-1E-propenyl]cyclopent-1R-yl}heptanoate] | 2 (26-50, significant) | – | – | –
